Consider 1 substance from paper PMC2424174, “Suppression of Tumor Growth and Angiogenesis by a Specific Antagonist of the Cell-Surface Expressed Nucleolin” (PLoS ONE, 2008).

One data set concerns nucleolin. Put plainly: Nucleolin expression in HB-19 treated MDA-MB-231 cells (immunoblot / immunofluorescence). It counts as cell-based, human. The note with it: for reduction of surface/cytoplasmic nucleolin: 10 µM HB-19, 37°C, vs untreated, immunoblot band intensity. On the procedure:
Figure 2 HB-19 binds nucleolin expressed on the surface of tumor cells and causes reduction of cytoplasmic/surface but not nuclear nucleolin. (A) HB-19/Btn forms a stable complex with nucleolin expressed on the surface of cells. MDA-MB-231 cells were incubated (45 min, 20°C) with 0, 1, 2, 4, 8 and 12 µM of HB-19/Btn before preparation of surface/cytoplasmic (i.e., nucleus-free) and nuclear extracts, [28]. Samples of surface nucleolin (purified using surface/cytoplasmic extracts from 2×10^7 cells) and crude surface/cytoplasmic and nuclear extracts (from 2×10^6 cells) were analyzed by immunoblotting for the detection of nucleolin using mAb D3. (B) Specific reduction of surface/cytoplasmic nucleolin in HB-19 treated cells. MDA-MB-231 cells were cultured (at 37°C) with 10 µM of HB-19 for 4, 24 and 48 hours before preparation of cytoplasmic and nuclear extracts. Material from 2×10^6 cells (Untreated or HB-19 treated cells as indicated − or + signs, respectively) was analyzed by immunoblotting for the detection of nucleolin. Sections of the gel at the position of the nucleolin bands are presented. […] The intensity of nucleolin protein bands quantified by using the NIH image software indicated 75% and 93% reduction of surface/cytoplasmic nucleolin in HB-19 treated cells at 24 and 48 hours, respectively, compared to the corresponding untreated cells. (C) HB-19 binds the cell surface and enters in the cytoplasm but not the nucleus. MDA-MB-231 cells were incubated at 20°C (for HB-19 Binding) or 37°C (for HB-19 Entry) with 5 µM of HB-19/Btn for 1 hour before fixation in PFA or PFA-Triton, respectively. Fixed cells were successively incubated with rabbit anti-biotin and goat Texas Red-conjugated anti-rabbit IgG and the nuclei were colored with DAPI. Scans corresponding to the cross-section of cells are shown, each with or without the DAPI. (D) Nucleolar nucleolin is not affected in HB-19 treated cells. MDA-MB-231 cells cultured in the absence (Control Cells) or presence of 10 µM of HB-19 for 48 hours (HB-19 Treated Cells) were fixed in PFA-Triton and processed for fluorescence microscopy.
Cells washed in phosphate-buffered saline (PBS) were lysed in buffer E (20 mM Tris–HCl, pH 7.6, 150 mM NaCl, 5 mM MgCl2, 0.2 mM phenylmethylsulfonyl fluoride (PMSF), 5 mM β-mercaptoethanol, aprotinin (1000 U/ml) and 0.5% Triton X-100) and the nuclei were pelleted by centrifugation (1000g for 5 min). […] Aliquots of crude cell extracts were diluted in 2 fold concentrated electrophoresis sample buffer containing SDS, heated and analyzed by SDS- polyacrylamide gel electrophoresis (PAGE). […]
A general note: In western blotting, separated proteins are transferred to a membrane and probed.

The next data set relates to HUVECs. Put plainly: HUVEC migration assay (modified Boyden chamber). Particulars: VEGF165; 1 µM HB-19 or 0.1 µM mAb MS-3; 4 h, 37°C; two independent experiments. Format: cell-based, human. On the procedure: Figure 6 Inhibition of in vitro and in vivo angiogenesis by HB-19. (A) HB-19 inhibits proliferation of HUVECs. Twenty-four hours after seeding HUVECs in 2% FBS, cells were stimulated by 0.25 nM VEGF165, in the absence or presence of 1 µM HB-19 or 0.1 µM anti-nucleolin mAb MS-3 as indicated. After 72 h, cell number was determined by crystal violet staining. The data are reported as the mean of triplicate samples. (B) HB-19 inhibits migration of HUVECs. Cell migration was studied using a modified Boyden chamber. Cells were incubated (4 h at 37°C) with VEGF165, HB-19, or anti-nucleolin mAb MS-3 as above. Cells that migrated through the pore to the lower filter surface were counted and are shown as number per microscopic field at ×100 magnification. […] Tubular network structures were quantified using phase contrast microscopy (×100). […] Quantification of endothelial cell invasion into the Matrigel was determined and is expressed as a mean of five fields per section from 3 Matrigel-plug sections per mouse. The results are expressed as the mean of five mice per group. […]
HUVEC migration assays were performed using a 24-well chemotaxis chamber (Transwell, Corning Costar, France). […] The cells that had migrated through the pores to the lower filter surface were counted in three random high power fields in each well (magnification 100×). […]

A further data set deals with athymic nude mice. Put plainly: Toxicity observations in treated nude mice. The note with it: HB-19, 3 times per week; data not shown.

Method for athymic nude mice: Inhibitory action of HB-19 was tested against established human breast carcinoma xenografts in the athymic nude mice. For this purpose, mice were inoculated subcutaneously with MDA-MB-231 or MDA-MB-435 cells that proliferate into palpable tumors in 2 weeks. Tumor bearing mice were then treated with HB-19 (Figure 8A, B) or control antitumoral reagents such as tamoxifen and 5-fluouracil (5-FU). The mice were administered 3 times per week with various drugs, during which time tumor-volume was measured by a caliper every third or fourth day. At the end of experiment, tumor-bearing mice were sacrificed, blood was collected for analysis, and the liver, lungs and spleen were removed for histological analysis.
4-week old female athymic nude Mice (Janvier, Le Genest St Isle, France) were injected subcutaneously in the right flank (MDA-MB-231) or in the mammary fat pad (MDA-MB-435) in 0.1 ml PBS. When the tumor reached about 40 mm^3, the mice were separated randomly in several groups. Administration of HB-19 in PBS (5 mg/kg body weight) was either by intraperitoneal, subcutaneous or peritumoral injections three times per week. Tumor volume was measured along two major axes with calipers. Tumor volume (mm^3) was calculated as follows: V = 4/3×π×R1 ^2×R2, where R1 is radius 1, R2 is radius 2 and R1<R2.

For “pseudo-tripeptide Lysψ(CH2N)-Pro-Arg coupled to a template (H2NLys-Lys-Lys-Gly-Pro-Lys-Glu-Lys-AhxCONH2) [HB-19]”, in the data set on nucleolin (10 µM HB-19, 24–48 hours), the “level and nucleolar localization of nuclear nucleolin” value is listed as “without apparent modification”. Also, the “reduction of surface/cytoplasmic nucleolin” value in the data set on nucleolin (24 hours) turned out to be 75%; in the data set on nucleolin (48 hours), 93%. Also, the “expression of other cytoplasmic proteins” value in the data set with nucleolin (10 µM HB-19, stained gel) is reported as “not affected”. Also, the “inhibition of HUVEC migration” value with HUVECs is “inhibited dramatically both of these events down to levels comparable to that of unstimulated cells”. In addition, the evidence of toxicity result in the data set on athymic nude mice is on record as “nor induced any evidence of toxicity such as diarrhea, infection, weakness, or lethargy”.
